Assay results: patent publication US10501518B2 (priority 2013, dated 2019)
Starred links: 1 amine or outer side, 2 acyl side, 3 side chain; linkers in the order of their positions; H or OH if unused. Non-standard residues stand in square brackets, D forms with d. Residues, ends and D or L forms follow the SMILES beside them. *: point of attachment. NH(1S,2S-2-CONH2-cPent) = NC(=O)[C@H]1CCC[C@@H]1N*; β3hW = N[C@H](CC(=O)O)Cc1c[nH]c2ccccc12; X12 = O=C([C@H]1CCC[C@@H]1N[*:1])[*:2]; X13 = O=C([C@H]1CNC[C@@H]1N[*:1])[*:2]; ACPC(1S,2S) = N[C@H]1CCC[C@@H]1C(=O)*; hArg = N=C(N)NCCCC[C@H](N)C(=O)O; β3hE = N[C@@H](CCC(=O)O)CC(=O)O; β3hF = N[C@H](CC(=O)O)Cc1ccccc1; X14 = O=C(C1CCCC1N[*:1])[*:2]; β3hK = NCCCC[C@H](N)CC(=O)O; β3hM = CSCC[C@H](N)CC(=O)O; β3hD = NC(CC(=O)O)CC(=O)O; β3hS = N[C@@H](CO)CC(=O)O

Biological target: T1, PTHR (Homo sapiens, UniProt Q03431)
T1 construct: expressed in transfected cells
T1 sequence (Q03431 27-593): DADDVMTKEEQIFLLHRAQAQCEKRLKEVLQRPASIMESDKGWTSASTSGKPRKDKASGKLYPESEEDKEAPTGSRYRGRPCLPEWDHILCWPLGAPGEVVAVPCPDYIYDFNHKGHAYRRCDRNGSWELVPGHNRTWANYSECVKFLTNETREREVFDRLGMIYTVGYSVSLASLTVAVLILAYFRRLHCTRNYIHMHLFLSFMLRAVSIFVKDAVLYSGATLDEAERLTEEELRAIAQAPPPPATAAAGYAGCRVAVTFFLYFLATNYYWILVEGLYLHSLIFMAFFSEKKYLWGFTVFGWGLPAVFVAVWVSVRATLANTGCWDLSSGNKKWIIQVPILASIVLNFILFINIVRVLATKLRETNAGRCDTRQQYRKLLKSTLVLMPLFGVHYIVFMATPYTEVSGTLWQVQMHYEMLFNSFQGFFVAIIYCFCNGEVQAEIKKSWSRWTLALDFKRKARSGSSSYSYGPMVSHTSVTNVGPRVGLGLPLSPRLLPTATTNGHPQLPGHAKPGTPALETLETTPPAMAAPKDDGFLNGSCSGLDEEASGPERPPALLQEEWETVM
Experiment: cAMP induction potency, N-terminal modifications and cyclic constraints (Tables 9, 10, 13)
Format: cell-based
Procedure: For cAMP dose-response assays, monolayers of confluent HEK 293 cells were pre-incubated with buffer containing d-luciferin (0.5 mM) in 96 well plates at room temperature until a stable baseline level of luminescence was established (30 min). Varying concentrations of agonist were then added, and the time course of luminescence response was recorded using a Perkin Elmer plate reader following α/β-peptide addition.

Row | Fold PTH (Table 9) | further results | Compound
1 |  | EC50 (Table 13, non M-PTH analogs, read-out: cAMP, EC50 nM ± SEM): 0.79 nM | CSCC[C@H](NC(=O)[C@H]1CCC[C@@H]1NC(=O)[C@H](CCC(N)=O)NC(=O)[C@H]1CCC[C@@H]1NC(=O)[C@H](CCC(=O)O)NC(=O)[C@H](CO)NC(=O)[C@@H](NC(=O)C[C@@H](N)CO)C(C)C)C(=O)N[C@@H](Cc1c[nH]cn1)C(=O)N[C@@H](CC(N)=O)C(=O)N[C@@H](CC(C)C)C(=O)NCC(=O)N[C@@H](CCCCN)C(=O)N[C@H]1CCC[C@@H]1C(=O)N[C@@H](CC(C)C)C(=O)N[C@@H](CC(N)=O)C(=O)N[C@@H](CO)C(=O)N[C@H]1CCC[C@@H]1C(=O)N[C@@H](CCC(=O)O)C(=O)N[C@@H](CCCNC(=N)N)C(=O)N[C@H](C(=O)N[C@H]1CNC[C@@H]1C(=O)N[C@@H](Cc1c[nH]c2ccccc12)C(=O)N[C@@H](CC(C)C)C(=O)N[C@@H](CCCNC(=N)N)C(=O)N[C@H]1CNC[C@@H]1C(=O)N[C@@H](CCCCN)C(=O)N[C@@H](CC(C)C)C(=O)N[C@@H](CCC(N)=O)C(=O)N[C@H]1CCC[C@@H]1C(=O)N[C@H](C(=O)N[C@@H](Cc1c[nH]cn1)C(=O)N[C@@H](CC(N)=O)C(=O)N[C@H]1CCC[C@@H]1C(N)=O)C(C)C)C(C)C [FcycD6_β^3Ser1, ACPC(5, 7, SVSEXQXMHNLGKXLNSXERVZWLRZKLQXVHNX-NH2] (H-[β3hS]VSE[X12]Q[X12]MHNLGK[X12]LNS[X12]ERV[X13]WLR[X13]KLQ[X12]VHN-{NH(1S,2S-2-CONH2-cPent)}; N-terminus assumed)
2 |  | Fold PTH (Table 10): 5.4 | CC[C@H](C)[C@H](NC(=O)[C@H](CCC(=O)O)NC(=O)[C@H](C)NC(=O)[C@@H](NC(=O)[C@H](C)N)C(C)C)C(=O)N[C@@H](CCC(N)=O)C(=O)NC1CCCC1C(=O)N[C@@H](CCSC)C(=O)N[C@@H](Cc1c[nH]cn1)C(=O)N[C@@H](CCC(N)=O)C(=O)N[C@@H](CCCCNC(=N)N)C(=O)N[C@@H](C)C(=O)N[C@@H](CCCCN)C(=O)N[C@H](CC(=O)N[C@@H](CC(C)C)C(=O)N[C@@H](CC(N)=O)C(=O)N[C@@H](CO)C(=O)N[C@@H](CCSC)CC(=O)N[C@@H](CCCNC(=N)N)C(=O)N[C@@H](CCCNC(=N)N)C(=O)N[C@H](C(=O)N[C@@H](CCC(=O)O)CC(=O)N[C@@H](Cc1c[nH]c2ccccc12)C(=O)N[C@@H](CC(C)C)C(=O)N[C@@H](CCCNC(=N)N)C(=O)N[C@@H](CCCCN)CC(=O)N[C@@H](CCCCN)C(=O)N[C@@H](CC(C)C)C(=O)N[C@@H](CCC(N)=O)C(=O)N[C@@H](CC(=O)O)CC(=O)N[C@H](C(=O)N[C@@H](Cc1c[nH]cn1)C(=O)N[C@@H](CC(N)=O)C(=O)N[C@H](CC(N)=O)Cc1ccccc1)C(C)C)C(C)C)Cc1c[nH]c2ccccc12 (stereo partly drawn) [M-D6] (H-AVAEIQ[X14]MHQ[hArg]AK[β3hW]LNS[β3hM]RRV[β3hE]WLR[β3hK]KLQ[β3hD]VHN[β3hF]-NH2; N-terminus assumed)
3 | 22.6 |  | XVSEIQXMHNLGKWLNSMERVEWLRKKLQDVHNF-NH2 [D6_ACPC(1,7)]
4 | 7.3 |  | CC[C@H](C)[C@H](NC(=O)[C@H](CCC(=O)O)NC(=O)[C@H](CO)NC(=O)[C@@H](NC(=O)[C@H]1CCC[C@@H]1N)C(C)C)C(=O)N[C@@H](CCC(N)=O)C(=O)N[C@H]1CCC[C@@H]1C(=O)N[C@@H](CCSC)C(=O)N[C@@H](Cc1c[nH]cn1)C(=O)N[C@@H](CC(N)=O)C(=O)N[C@@H](CC(C)C)C(=O)NCC(=O)N[C@@H](CCCCN)C(=O)N[C@H]1CCC[C@@H]1C(=O)N[C@@H](CC(C)C)C(=O)N[C@@H](CC(N)=O)C(=O)N[C@@H](CO)C(=O)N[C@H]1CCC[C@@H]1C(=O)N[C@@H](CCC(=O)O)C(=O)N[C@@H](CCCNC(=N)N)C(=O)N[C@H](C(=O)N[C@@H](CCC(=O)O)CC(=O)N[C@@H](Cc1c[nH]c2ccccc12)C(=O)N[C@@H](CC(C)C)C(=O)N[C@@H](CCCNC(=N)N)C(=O)N[C@H]1CNC[C@@H]1C(=O)N[C@@H](CCCCN)C(=O)N[C@@H](CC(C)C)C(=O)N[C@@H](CCC(N)=O)C(=O)N[C@@H](CC(=O)O)CC(=O)N[C@H](C(=O)N[C@@H](Cc1c[nH]cn1)C(=O)N[C@@H](CC(N)=O)C(=O)N[C@H]1CCC[C@@H]1C(N)=O)C(C)C)C(C)C [CycD6_ACPC(1,7), XVSEIQXMHNLGKXLNSXERVEWLRZKLQDVHNX-NH2] ({ACPC(1S,2S)}-VSEIQ[X12]MHNLGK[X12]LNS[X12]ERV[β3hE]WLR[X13]KLQ[β3hD]VHN-{NH(1S,2S-2-CONH2-cPent)}; N-terminus assumed)
